# According to patent US20020015743A1, “USE OF THE RB1, GINSENOSIDE FOR STIMULATING ELASTIN SYNTHESIS” (priority 1997, published 2002):
# Values joined by “and” are separate entries in the source; they are usually repeats but may differ in a detail not shown here. Equal entries are not always repeated.
# Columns and labels:
# [1] = tested on: normal human fibroblasts (NHF-47 years); experiment: Elastin secreted by normal human skin fibroblasts, ELISA on culture supernatants (NHF-47 years); format: cell-based; details: for Activity in % (stimulation of elastin secretion vs control): 48 h; for ng Elastin/μg prot/48 h: n=6
# Source text: The cells had been obtained by the method of explants as described by M. Dumas et al. in the article entitled “in vitro biosynthesis of type I and III collagens by human dermal fibroblasts from donors of increasing ages” in Mech. Ageing Dev. 73 (1994), pages 179-187. These normal human skin fibroblasts thus obtained are sown in the wells of a multi-well culture box, in an E 199 culture medium, in which 2 millimoles per liter of L-glutamine have been added. Further, for a certain number of tests, the culture medium contains sodium ascorbate at concentrations of 15 or 25 micromoles per liter. 24 hours after sowing, certain wells receive ginsenoside Rb1 or an extract of Panax 1 to 10 μg/ml via a solution in DMSO so that the final DMSO concentration be 0.1%. […] These control cultures only receive DMSO at a final concentration of 0.1% by weight. The culture is continued for 48 h. After 48 h of culture as indicated above, the elastin secreted is determined on the supernatants of the culture, by an ELISA method derived from that used for the determination of collagen, as described by M. Dumas et al in the publication cited above, except that a commercial human anti-elastin polyclonal antibody was used instead of the human anti-collagen I and III polyclonal antibodies. A standard range made from commercial soluble elastin enables converting into nanograms of elastin the values of optical density (OD) obtained from the culture supernatants. In parallel with the determination of the elastin, a determination of the cell proteins is carried out on the cultures of fibroblasts, after removal of the supernatant, in order to bring the amount of elastin determined to a fixed amount of cell proteins. The determination is carried out by using a BCA-1 kit (Bicinchoninic acid kit, marketed by Sigma, France) after dissolution of the cell plug with 0.1 N sodium hydroxide solution. The results are expressed in nanograms of elastin secreted per microgram of cellular proteins. The activity A of stimulation, expressed in percentage, is calculated according to the following formula: [formula] The results obtained on the treated cultures (n=6) and controls (n=6) are compared with the aid of the Student t test for non-paired series. Any value of p<0.05 will indicate that a significant difference exists between the secretion of elastin of the control NHFs and those treated with the products of the invention.
# [2] = tested on: normal human fibroblasts (NHF-50 years); experiment: Elastin secreted by normal human skin fibroblasts, ELISA on culture supernatants (NHF-50 years); format: cell-based
# Source text: The cells had been obtained by the method of explants as described by M. Dumas et al. in the article entitled “in vitro biosynthesis of type I and III collagens by human dermal fibroblasts from donors of increasing ages” in Mech. Ageing Dev. 73 (1994), pages 179-187. These normal human skin fibroblasts thus obtained are sown in the wells of a multi-well culture box, in an E 199 culture medium, in which 2 millimoles per liter of L-glutamine have been added. Further, for a certain number of tests, the culture medium contains sodium ascorbate at concentrations of 15 or 25 micromoles per liter. 24 hours after sowing, certain wells receive ginsenoside Rb1 or an extract of Panax 1 to 10 μg/ml via a solution in DMSO so that the final DMSO concentration be 0.1%. […] These control cultures only receive DMSO at a final concentration of 0.1% by weight. The culture is continued for 48 h. After 48 h of culture as indicated above, the elastin secreted is determined on the supernatants of the culture, by an ELISA method derived from that used for the determination of collagen, as described by M. Dumas et al in the publication cited above, except that a commercial human anti-elastin polyclonal antibody was used instead of the human anti-collagen I and III polyclonal antibodies. A standard range made from commercial soluble elastin enables converting into nanograms of elastin the values of optical density (OD) obtained from the culture supernatants. In parallel with the determination of the elastin, a determination of the cell proteins is carried out on the cultures of fibroblasts, after removal of the supernatant, in order to bring the amount of elastin determined to a fixed amount of cell proteins. The determination is carried out by using a BCA-1 kit (Bicinchoninic acid kit, marketed by Sigma, France) after dissolution of the cell plug with 0.1 N sodium hydroxide solution. The results are expressed in nanograms of elastin secreted per microgram of cellular proteins. The activity A of stimulation, expressed in percentage, is calculated according to the following formula: [formula] […]
# [3] = tested on: keratinocytes; details: Nack-in-Kim et al., J.Invest.Dermatol. 1993; cited from earlier work
# [4] = tested on: fibrocytes; details: Tanaka H. et al., 1991; cited from earlier work
# [5] = product 10 μg/ml, no ascorbate, DMSO 0.1%
molecule,measurement,setting,value
"CC(C)=CCC[C@](C)(O[C@@H]1O[C@H](CO[C@@H]2O[C@H](CO)[C@@H](O)[C@H](O)[C@H]2O)[C@@H](O)[C@H](O)[C@H]1O)[C@H]1CC[C@]2(C)[C@@H]1[C@H](O)C[C@@H]1[C@@]3(C)CC[C@H](O[C@@H]4O[C@H](CO)[C@@H](O)[C@H](O)[C@H]4O[C@@H]4O[C@H](CO)[C@@H](O)[C@H](O)[C@H]4O)C(C)(C)[C@@H]3CC[C@]12C [G-Rb1, ginsenoside Rb1]",Activity in % (stimulation of elastin secretion vs control),[1]; product 10 μg/ml + Asc. 15 μM,16%
same,ng Elastin/μg prot/48 h,[1]; product 10 μg/ml + Asc. 15 μM,39.3 + 2.8 ng Elastin/μg prot/48 h
same,Activity in % (stimulation of elastin secretion vs control),[1]; product 10 μg/ml + Asc. 25 μM,10%
same,ng Elastin/μg prot/48 h,[1]; product 10 μg/ml + Asc. 25 μM,38.8 + 6.8 ng Elastin/μg prot/48 h
same,Activity in % (stimulation of elastin secretion vs control),[1]; [5],31%
same,ng Elastin/μg prot/48 h,[1]; [5],25.8 ± 2.2 ng Elastin/μg prot/48 h
same,Activity in % (stimulation of elastin secretion vs control),"[2]; NHF-50 years, product 10 μg/ml + Asc. 25 μM, 48 h",21% and 17%
same,ng Elastin/μg prot/48 h,"[2]; NHF-50 years, product 10 μg/ml + Asc. 25 μM, 48 h, n=6",26.3 + 3.7 ng Elastin/μg prot/48 h and 32 + 4.3 ng Elastin/μg prot/48 h and 28 + 2.2 ng Elastin/μg prot/48 h
same,synthesis of elastin by the fibroblasts (conclusion in words),"[2]; conclusion from Tables 1 to 3 (NHF-47 and NHF-50 years), stimulation augments with concentration",strongly stimulate the synthesis of elastin
ginsenoside,action on the proliferation of the keratinocytes,[3],inhibitory action
CC(C)=CCC[C@](C)(O[C@@H]1O[C@H](CO[C@@H]2OC[C@H](O)[C@H](O)[C@H]2O)[C@@H](O)[C@H](O)[C@H]1O)[C@H]1CC[C@]2(C)[C@@H]1[C@H](O)C[C@@H]1[C@@]3(C)CC[C@H](O[C@@H]4O[C@H](CO)[C@@H](O)[C@H](O)[C@H]4O[C@@H]4O[C@H](CO)[C@@H](O)[C@H](O)[C@H]4O)C(C)(C)[C@@H]3CC[C@]12C [ginsenoside Rb2],synthesis of glycosaminoglycans (GAG) by the fibrocytes,[4],effective to stimulate the synthesis of glycosaminoglycans (GAG)
